Experimental data: patent publication US11000033B2, “Ketone or oxime compound, and herbicide” (NISSAN CHEMICAL CORPORATION, priority 2014, dated 2021)

Legend:
Type in all cases: in vivo
beet [1] = assay: Test Example 5: effect on crop by foliage application, plastic box (symbol f); details: 320 g/ha, 3 weeks after application
Summary of the method: (§1)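 In a plastic box 7 cm deep filled with sterilized diluvial soil, seeds of crops and weeds such as Digitaria ciliaris, Avena fatua and Amaranthus retroflexus are sown in spots and covered with about 1.5 cm of soil before greenhouse growth at 25–30° C.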

beet [2] = assay: Test Example 4: effect on crop by soil treatment (symbol f); details: for f (beet) effect on crop grade: application herbicide amount 320 g/ha; for f: beet, effect grade on crop: 320 g/ha
Summary of the method: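 Sterilized diluvial soil, spot sowing, ~1.5 cm soil cover; greenhouse 25–30° C.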

Avena fatua = assay: Test Example 5: herbicidal effect by foliage application, plastic box (symbol I); details: 320 g/ha, 3 weeks after application
Summary of the method: (§2)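 Leaf-applied emulsion, water-diluted to a preset herbicide dose, on two-week-old seedlings raised in a 25° C. to 30° C. greenhouse; injury rated at 3 weeks using earlier criteria.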

Digitaria ciliaris = assay: Test Example 5: herbicidal effect by foliage application, plastic box (symbol F); details: 320 g/ha, 3 weeks after application
Summary of the method: as §2

Veronica persica = assay: Test Example 4: herbicidal effect by soil treatment (symbol R); details: for R (Veronica persica) herbicidal effect grade: application herbicide amount 320 g/ha; for R: Veronica persica, herbicidal effect grade: 320 g/ha
Summary of the method: (§3)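 Seeds were sown in sterilized diluvial soil, covered with about 1.5 cm of soil, and the soil surface was sprayed with a water-diluted emulsion of the compound at a predetermined rate. Plants grew in a greenhouse at 25° C. to 30° C.; effects were scored visually 3 weeks after application.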

Setaria viridis = assay: Test Example 4: herbicidal effect by soil treatment (symbol G); details: for G (Setaria viridis) herbicidal effect grade: application herbicide amount 320 g/ha; for G: Setaria viridis, herbicidal effect grade: 320 g/ha
Summary of the method: as §3

rapeseed = assay: Test Example 5: effect on crop by foliage application, plastic box (symbol g); details: 320 g/ha, 3 weeks after application
Summary of the method: as §1

Alopecurus myosuroides = assay: Test Example 5: herbicidal effect by foliage application, plastic box (symbol J); details: 320 g/ha, 3 weeks after application
Summary of the method: as §2

Scirpus juncoides = assay: Test Example 2: herbicidal activity, application during weed generation in submerged conditions (symbol B); details: Table 23; application herbicide amount 320 g/ha; grade 0-5 by criteria of Test Example 1
Summary of the method: (§4)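 Submerged alluvial soil (4 cm) sown with mixed seed; greenhouse 25–30° C. 1–2 leaf: diluted emulsion onto water surface, preset dose. Visual score, 3 wk.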

[3] = tested on: Echinochloa oryzacola Vasing.; assay: Test Example 1: herbicidal activity, application before weed generation in submerged conditions (symbol A); details: application herbicide amount 320 g/ha
Summary of the method: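 Mixed weed seeds sown in alluvial soil under 4 cm of water, with rice seedlings at the 2.5-leaf stage added. Same-day treatment: emulsion diluted to a set herbicide amount onto the water. Three weeks at 25–30 °C, then graded on a six-step scale.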

Leptochloa chinensis = assay: Test Example 3: herbicidal effect by foliage application, Wagner pot (symbol D); details: application herbicide amount 320 g/ha
Summary of the method: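 Steps: fill pot with alluvial soil; add water to 0.1–0.5 cm depth; sow weed and rice seed; grow 14 days at 25–30 °C; spray diluted emulsion over the leaves; rate effect after 3 weeks.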

Monochoria vaginalis = assay: Test Example 2: herbicidal activity, application during weed generation in submerged conditions (symbol C); details: Table 23; application herbicide amount 320 g/ha; grade 0-5 by criteria of Test Example 1
Summary of the method: as §4

Row | Structure (SMILES) | f: beet, effect on crop grade (beet [1]) | f (beet) effect on crop grade (beet [2]) | I: Avena fatua, herbicidal effect grade (Avena fatua) | F: Digitaria ciliaris, herbicidal effect grade (Digitaria ciliaris) | R (Veronica persica) herbicidal effect grade (Veronica persica) | G (Setaria viridis) herbicidal effect grade (Setaria viridis) | g: rapeseed, effect on crop grade (rapeseed) | J: Alopecurus myosuroides, herbicidal effect grade (Alopecurus myosuroides) | Herbicidal effect grade, B: Scirpus juncoides (Scirpus juncoides) | Herbicidal effect grade, A: Echinochloa oryzacola Vasing. [3] | herbicidal effect on D (Leptochloa chinensis), grade 0-5 (Leptochloa chinensis) | Herbicidal effect grade, C: Monochoria vaginalis (Monochoria vaginalis) | f: beet, effect on crop (criteria 0-5) (beet [1]) | f: beet, effect grade on crop (beet [2]) | I: Avena fatua, herbicidal effect (criteria 0-5) (Avena fatua) | F: Digitaria ciliaris, herbicidal effect (criteria 0-5) (Digitaria ciliaris) | R: Veronica persica, herbicidal effect grade (Veronica persica) | G: Setaria viridis, herbicidal effect grade (Setaria viridis) | g: rapeseed, effect on crop (criteria 0-5) (rapeseed) | J: Alopecurus myosuroides, herbicidal effect (criteria 0-5) (Alopecurus myosuroides)
1 | CON=C(C)CC1CC(OC(=O)COc2ccccc2OC)=C(c2c(C)cc(C)cc2C)C1=O (stereo not drawn) [1-067] | 1 (Herbicidal ratio of 5% or higher and lower than 20%) | 0 (Herbicidal ratio of 5% or lower (almost no effect)) | 5 (Herbicidal ratio of 90% or more (almost completely withered)) | 5 (Herbicidal ratio of 90% or more (almost completely withered)) | 0 (Herbicidal ratio of 5% or lower (almost no effect)) | 5 (Herbicidal ratio of 90% or more (almost completely withered)) | 4 (Herbicidal ratio of 70% or higher and lower than 90%) | 5 (Herbicidal ratio of 90% or more (almost completely withered)) | 4 (Herbicidal ratio of 70% or higher and lower than 90%) | 5 (Herbicidal ratio of 90% or more (almost completely withered)) | 5 (Herbicidal ratio of 90% or more (almost completely withered)) | 2 (Herbicidal ratio of 20% or higher and lower than 40%) | – | – | – | – | – | – | – | –
2 | CON=C(C)CC1CC(OC(=O)COc2cccc(OC)c2)=C(c2c(C)cc(C)cc2C)C1=O (stereo not drawn) [1-068] | 3 (Herbicidal ratio of 40% or higher and lower than 70%) | 0 (Herbicidal ratio of 5% or lower (almost no effect)) | 5 (Herbicidal ratio of 90% or more (almost completely withered)) | 5 (Herbicidal ratio of 90% or more (almost completely withered)) | 0 (Herbicidal ratio of 5% or lower (almost no effect)) | 5 (Herbicidal ratio of 90% or more (almost completely withered)) | 4 (Herbicidal ratio of 70% or higher and lower than 90%) | 5 (Herbicidal ratio of 90% or more (almost completely withered)) | 5 (Herbicidal ratio of 90% or more (almost completely withered)) | 5 (Herbicidal ratio of 90% or more (almost completely withered)) | 5 (Herbicidal ratio of 90% or more (almost completely withered)) | 3 (Herbicidal ratio of 40% or higher and lower than 70%) | – | – | – | – | – | – | – | –
3 | CON=C(C)CC1CC(OC(=O)COc2ccc(OC)cc2)=C(c2c(C)cc(C)cc2C)C1=O (stereo not drawn) [1-069] | 1 (Herbicidal ratio of 5% or higher and lower than 20%) | 0 (Herbicidal ratio of 5% or lower (almost no effect)) | 5 (Herbicidal ratio of 90% or more (almost completely withered)) | 5 (Herbicidal ratio of 90% or more (almost completely withered)) | 0 (Herbicidal ratio of 5% or lower (almost no effect)) | 4 (Herbicidal ratio of 70% or higher and lower than 90%) | 4 (Herbicidal ratio of 70% or higher and lower than 90%) | 5 (Herbicidal ratio of 90% or more (almost completely withered)) | 4 (Herbicidal ratio of 70% or higher and lower than 90%) | 5 (Herbicidal ratio of 90% or more (almost completely withered)) | 5 (Herbicidal ratio of 90% or more (almost completely withered)) | 3 (Herbicidal ratio of 40% or higher and lower than 70%) | – | – | – | – | – | – | – | –
4 | CON=C(CC1CC1)CC1CC(O)=C(c2c(C)cc(C)cc2C)C1=O (stereo not drawn) [1-070] | 0 (Herbicidal ratio of 5% or lower (almost no effect)) | 0 (Herbicidal ratio of 5% or lower (almost no effect)) | 5 (Herbicidal ratio of 90% or more (almost completely withered)) | 1 (Herbicidal ratio of 5% or higher and lower than 20%) | 0 (Herbicidal ratio of 5% or lower (almost no effect)) | 4 (Herbicidal ratio of 70% or higher and lower than 90%) | 3 (Herbicidal ratio of 40% or higher and lower than 70%) | 5 (Herbicidal ratio of 90% or more (almost completely withered)) | 0 (Herbicidal ratio of 5% or lower (almost no effect)) | 4 (Herbicidal ratio of 70% or higher and lower than 90%) | 4 (Herbicidal ratio of 70% or higher and lower than 90%) | 0 (Herbicidal ratio of 5% or lower (almost no effect)) | – | – | – | – | – | – | – | –
5 | CON=C(C)CC1CC(OC(=O)COc2ccc(C)cc2)=C(c2c(C)cc(C)cc2C)C1=O (stereo not drawn) [1-072] | 1 (Herbicidal ratio of 5% or higher and lower than 20%) | 0 (Herbicidal ratio of 5% or lower (almost no effect)) | 5 (Herbicidal ratio of 90% or more (almost completely withered)) | 5 (Herbicidal ratio of 90% or more (almost completely withered)) | 0 (Herbicidal ratio of 5% or lower (almost no effect)) | 5 (Herbicidal ratio of 90% or more (almost completely withered)) | 4 (Herbicidal ratio of 70% or higher and lower than 90%) | 5 (Herbicidal ratio of 90% or more (almost completely withered)) | 3 (Herbicidal ratio of 40% or higher and lower than 70%) | 5 (Herbicidal ratio of 90% or more (almost completely withered)) | 5 (Herbicidal ratio of 90% or more (almost completely withered)) | 0 (Herbicidal ratio of 5% or lower (almost no effect)) | – | – | – | – | – | – | – | –
6 | CON=C(CC1CC(O)=C(c2c(C)cc(C)cc2C)C1=O)C1CCCC1 (stereo not drawn) [1-078] | – | – | – | – | – | – | – | – | 0 (Herbicidal ratio of 5% or lower (almost no effect)) | 5 (Herbicidal ratio of 90% or more (almost completely withered)) | 4 (Herbicidal ratio of 70% or higher and lower than 90%) | 0 (Herbicidal ratio of 5% or lower (almost no effect)) | 0 (Herbicidal ratio of 5% or lower (almost no effect)) | 0 (Herbicidal ratio of 5% or lower (almost no effect)) | 1 (Herbicidal ratio of 5% or higher and lower than 20%) | 1 (Herbicidal ratio of 5% or higher and lower than 20%) | 0 (Herbicidal ratio of 5% or lower (almost no effect)) | 5 (Herbicidal ratio of 90% or more (almost completely withered)) | 3 (Herbicidal ratio of 40% or higher and lower than 70%) | 4 (Herbicidal ratio of 70% or higher and lower than 90%)
7 | CON=C(C)CC1CC(OC(=O)COc2ccc(C=O)cc2)=C(c2c(C)cc(C)cc2C)C1=O (stereo not drawn) [1-079] | – | – | – | – | – | – | – | – | 4 (Herbicidal ratio of 70% or higher and lower than 90%) | 5 (Herbicidal ratio of 90% or more (almost completely withered)) | 5 (Herbicidal ratio of 90% or more (almost completely withered)) | 3 (Herbicidal ratio of 40% or higher and lower than 70%) | 0 (Herbicidal ratio of 5% or lower (almost no effect)) | 0 (Herbicidal ratio of 5% or lower (almost no effect)) | 5 (Herbicidal ratio of 90% or more (almost completely withered)) | 5 (Herbicidal ratio of 90% or more (almost completely withered)) | 0 (Herbicidal ratio of 5% or lower (almost no effect)) | 5 (Herbicidal ratio of 90% or more (almost completely withered)) | 5 (Herbicidal ratio of 90% or more (almost completely withered)) | 5 (Herbicidal ratio of 90% or more (almost completely withered))
